Where “and” joins values, the source holds several entries; their conditions need not be identical. Equal values may be shown once. Marks after values point to notes of the source that are not given here.
Tests used:
[1] = tested on: CYP; assay: Activation energy differences from experimental regioselectivity of substrates in rapid equilibrium; assay type: in vitro ADME; parameters: unit not given here; details: difference in activation energy calculated by the experimental regioselectivity
Text: Five substrates shown to undergo rapid equilibrium between positions of metabolism have been used to prepare data for regression and then correlation with Eq. 1. The differences in activation energy calculated by the experimental regioselectivity of the substrates, along with the differences in AM1 activation enthalpies, are given in Table 1. Regression of the experimental data gives a slope correction for AM1 activation energies of 0.75±0.20.

[2] = molecular target: T1, CYP1A2 (Homo sapiens, UniProt P05177); details: pH 7.4
T1 sequence (P05177 1-516): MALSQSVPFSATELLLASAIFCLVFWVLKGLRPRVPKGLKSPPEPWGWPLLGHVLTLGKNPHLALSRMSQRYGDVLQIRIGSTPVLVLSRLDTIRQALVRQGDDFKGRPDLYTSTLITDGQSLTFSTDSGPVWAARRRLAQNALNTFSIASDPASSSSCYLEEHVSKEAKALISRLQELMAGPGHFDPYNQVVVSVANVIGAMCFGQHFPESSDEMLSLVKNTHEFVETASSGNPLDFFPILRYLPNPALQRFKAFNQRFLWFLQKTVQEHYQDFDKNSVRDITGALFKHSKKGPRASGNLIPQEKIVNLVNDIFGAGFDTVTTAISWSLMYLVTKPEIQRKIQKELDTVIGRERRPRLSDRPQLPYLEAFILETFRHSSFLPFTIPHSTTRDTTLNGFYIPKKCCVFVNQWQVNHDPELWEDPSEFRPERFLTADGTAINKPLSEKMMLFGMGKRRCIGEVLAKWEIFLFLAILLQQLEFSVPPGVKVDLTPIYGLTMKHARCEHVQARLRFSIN

[3] = molecular target: T2, CYP2B1 (Rattus norvegicus, UniProt P00176)
T2 sequence (P00176 1-491): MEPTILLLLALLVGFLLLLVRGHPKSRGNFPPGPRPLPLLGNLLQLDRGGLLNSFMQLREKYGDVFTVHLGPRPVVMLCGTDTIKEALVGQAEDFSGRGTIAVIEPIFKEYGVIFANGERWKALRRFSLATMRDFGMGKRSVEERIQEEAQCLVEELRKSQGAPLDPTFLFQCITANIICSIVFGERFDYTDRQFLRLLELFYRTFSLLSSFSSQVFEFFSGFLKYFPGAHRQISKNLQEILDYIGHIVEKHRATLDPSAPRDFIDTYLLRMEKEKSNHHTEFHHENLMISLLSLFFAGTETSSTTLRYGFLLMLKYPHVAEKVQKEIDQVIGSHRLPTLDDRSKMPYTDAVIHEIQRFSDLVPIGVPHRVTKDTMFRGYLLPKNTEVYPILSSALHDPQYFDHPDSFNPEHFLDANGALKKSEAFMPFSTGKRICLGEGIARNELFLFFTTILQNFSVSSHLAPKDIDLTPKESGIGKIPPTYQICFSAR

[4] = molecular target: T3, CYP2B6 (Homo sapiens, UniProt P20813); details: human, pH 7.4
T3 sequence (P20813 1-491): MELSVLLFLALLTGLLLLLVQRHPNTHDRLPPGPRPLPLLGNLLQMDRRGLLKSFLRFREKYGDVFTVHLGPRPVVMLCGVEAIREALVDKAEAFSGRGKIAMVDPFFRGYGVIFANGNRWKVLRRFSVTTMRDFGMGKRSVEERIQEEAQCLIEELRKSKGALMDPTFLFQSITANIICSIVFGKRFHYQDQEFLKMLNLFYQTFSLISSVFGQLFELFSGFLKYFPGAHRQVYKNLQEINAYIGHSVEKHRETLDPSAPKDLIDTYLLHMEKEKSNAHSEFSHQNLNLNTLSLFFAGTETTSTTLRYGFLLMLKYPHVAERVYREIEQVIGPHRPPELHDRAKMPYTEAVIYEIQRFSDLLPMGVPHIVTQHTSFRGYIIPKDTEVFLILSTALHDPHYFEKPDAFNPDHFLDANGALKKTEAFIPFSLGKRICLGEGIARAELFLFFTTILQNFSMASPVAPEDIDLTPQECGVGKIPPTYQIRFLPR

[5] = molecular target: CYP2C9 (Homo sapiens, UniProt P11712); details: human, pH 7.4
Sequence of CYP2C9 (P11712 whole entry): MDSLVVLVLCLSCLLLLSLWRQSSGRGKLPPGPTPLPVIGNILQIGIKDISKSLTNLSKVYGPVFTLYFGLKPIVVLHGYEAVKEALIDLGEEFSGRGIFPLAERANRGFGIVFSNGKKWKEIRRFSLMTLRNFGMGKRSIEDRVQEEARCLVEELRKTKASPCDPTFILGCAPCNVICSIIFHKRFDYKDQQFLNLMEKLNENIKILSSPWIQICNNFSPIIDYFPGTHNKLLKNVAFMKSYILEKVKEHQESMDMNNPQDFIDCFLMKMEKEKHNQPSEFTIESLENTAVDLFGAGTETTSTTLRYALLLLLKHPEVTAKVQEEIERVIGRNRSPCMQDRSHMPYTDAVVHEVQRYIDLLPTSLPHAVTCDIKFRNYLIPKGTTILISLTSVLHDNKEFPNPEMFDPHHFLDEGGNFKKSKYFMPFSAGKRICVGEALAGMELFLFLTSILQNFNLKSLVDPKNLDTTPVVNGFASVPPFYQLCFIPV

[6] = molecular target: CYP2E1 (Homo sapiens, UniProt P05181); details: pH 7.4
Sequence of CYP2E1 (P05181 whole entry): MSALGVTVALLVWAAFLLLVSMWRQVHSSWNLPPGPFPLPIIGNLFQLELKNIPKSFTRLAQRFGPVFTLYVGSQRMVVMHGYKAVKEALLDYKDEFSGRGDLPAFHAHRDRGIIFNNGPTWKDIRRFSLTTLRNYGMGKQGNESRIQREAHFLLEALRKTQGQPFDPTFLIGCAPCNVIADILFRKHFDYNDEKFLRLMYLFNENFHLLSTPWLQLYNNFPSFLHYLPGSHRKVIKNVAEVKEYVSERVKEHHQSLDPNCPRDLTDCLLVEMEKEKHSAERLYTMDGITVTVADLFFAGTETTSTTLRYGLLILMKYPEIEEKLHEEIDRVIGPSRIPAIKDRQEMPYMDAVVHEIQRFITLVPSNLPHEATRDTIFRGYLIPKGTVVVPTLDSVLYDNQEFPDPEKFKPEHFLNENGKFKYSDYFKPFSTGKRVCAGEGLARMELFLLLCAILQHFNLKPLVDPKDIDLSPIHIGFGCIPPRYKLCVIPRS

[7] = molecular target: CYP4B1 (Oryctolagus cuniculus, UniProt P15128)
Sequence of CYP4B1 (P15128 whole entry): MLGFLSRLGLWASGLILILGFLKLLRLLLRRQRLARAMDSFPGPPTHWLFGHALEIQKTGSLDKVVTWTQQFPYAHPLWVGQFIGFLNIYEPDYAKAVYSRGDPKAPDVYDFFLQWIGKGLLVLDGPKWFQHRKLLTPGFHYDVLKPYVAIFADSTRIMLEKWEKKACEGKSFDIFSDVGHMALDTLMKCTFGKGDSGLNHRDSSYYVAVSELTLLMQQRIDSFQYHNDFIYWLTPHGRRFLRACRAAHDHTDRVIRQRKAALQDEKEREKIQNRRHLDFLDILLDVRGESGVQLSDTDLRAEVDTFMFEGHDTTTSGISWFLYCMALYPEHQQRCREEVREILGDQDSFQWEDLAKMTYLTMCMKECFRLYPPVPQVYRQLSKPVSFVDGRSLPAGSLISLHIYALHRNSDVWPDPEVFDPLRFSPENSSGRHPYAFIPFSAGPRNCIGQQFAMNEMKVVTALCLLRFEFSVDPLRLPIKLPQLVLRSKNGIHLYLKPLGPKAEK

COc1ccc(C)cc1 [p-Methylanisole, p-methylanisole]
ΔΔG (experimental) [1]: 1.1
INTER KIE (combined intermolecular competitive KIE) [2]: 5.9
P, calculated primary KIE [2]: 5.0
S, calculated secondary KIE [2]: 1.08
INTER KIE (combined intermolecular competitive KIE) [3]: 5.8
Intramolecular KIE (kH/kD) [3]: 3.69
P, calculated primary KIE [3]: 4.3
S, calculated secondary KIE [3]: 1.16
nmol p-CR ([3]; rat, pH 7.4): 2.0* nmol
nmol p-MBA ([3]; rat, pH 7.4): 4.2* nmol
nmol total TP ([3]; rat, pH 7.4): 6.2* nmol
INTER KIE (combined intermolecular competitive KIE) [4]: 6.8
Intramolecular KIE (kH/kD) [4]: 3.74
P, calculated primary KIE [4]: 4.6
S, calculated secondary KIE [4]: 1.22
nmol p-CR [4]: 2.10* nmol
nmol p-MBA [4]: 7.0* nmol
nmol total TP [4]: 9.1 nmol
INTER KIE (combined intermolecular competitive KIE) [5]: 2.6
INTER KIE (combined intermolecular competitive KIE) [6]: 6.6
Intermolecular Competitive ^D(V/K) [6]: 2.57 ± 0.02
Intermolecular Noncompetitive ^D(V/K) [6]: 2.60 ± 0.01
Intermolecular Noncompetitive ^DV [6]: 2.28 ± 0.10
P, calculated primary KIE [6]: 4.9
S, calculated secondary KIE [6]: 1.16
nmol p-CR [6]: 5.6* nmol
nmol p-MBA [6]: 23.8* nmol
nmol total TP [6]: 29.4 nmol
INTER KIE (combined intermolecular competitive KIE) [7]: 1.4 and 1.42
Intramolecular KIE (kH/kD) [7]: 6.08
nmol p-CR ([7]; pH 7.4): 48* nmol
nmol p-MBA ([7]; pH 7.4): 63* nmol
nmol total TP ([7]; pH 7.4): 111* nmol

COc1ccccc1C [o-Methylanisole, o-methylanisole]
ΔΔG (experimental) [1]: 0.3
INTER KIE (combined intermolecular competitive KIE) [2]: 9.15
Intramolecular KIE (kH/kD) [2]: 5.7
Metabolite profile, Phenol [2]: 54 Mol-%
Metabolite profile, o-CR [2]: 12 Mol-%
Metabolite profile, o-MBA [2]: 34 Mol-%
P, calculated primary KIE [2]: 6.7
Ratio of ring hydroxylation para to the methoxy group to ODAlk [2]: 4.5
S, calculated secondary KIE [2]: 1.17
nmol 4M3MPh [2]: 9.7* nmol
nmol TP [2]: 18.0 nmol
nmol o-CR [2]: 2.2* nmol
nmol o-MBA [2]: 6.1* nmol
INTER KIE (combined intermolecular competitive KIE) [3]: 9.3
Intramolecular KIE (kH/kD) [3]: 5.78
P, calculated primary KIE [3]: 6.8
S, calculated secondary KIE [3]: 1.2
Metabolite profile, Phenol ([3]; rat, pH 7.4): 63 Mol-%
Metabolite profile, o-CR ([3]; rat, pH 7.4): 18 Mol-%
Metabolite profile, o-MBA ([3]; rat, pH 7.4): 19 Mol-%
Ratio of ring hydroxylation para to the methoxy group to ODAlk ([3]; rat, pH 7.4): 3.5
nmol 4M3MPh ([3]; rat, pH 7.4): 9.1* nmol
nmol TP ([3]; rat, pH 7.4): 13* nmol
nmol o-CR ([3]; rat, pH 7.4): 2.3* nmol
nmol o-MBA ([3]; rat, pH 7.4): 2.37* nmol
INTER KIE (combined intermolecular competitive KIE) [4]: 10.43
Intramolecular KIE (kH/kD) [4]: 6.78
Metabolite profile, o-CR [4]: 56 Mol-%
Metabolite profile, o-MBA [4]: 29 Mol-%
P, calculated primary KIE [4]: 7.8
Ratio ODAlk:Arom [4]: 0.3
S, calculated secondary KIE [4]: 1.15
nmol 4M3MPh [4]: 2.8 nmol
nmol TP [4]: 19 nmol
nmol o-CR [4]: 10.7* nmol
nmol o-MBA [4]: 5.5* nmol
INTER KIE (combined intermolecular competitive KIE) [5]: 12
Intramolecular KIE (kH/kD) [5]: 6.3
Metabolite profile, Phenol [5]: 32 Mol-%
Metabolite profile, o-CR [5]: 22 Mol-%
Metabolite profile, o-MBA [5]: 46 Mol-%
P, calculated primary KIE [5]: 8
Ratio of ring hydroxylation para to the methoxy group to ODAlk [5]: 1.5
S, calculated secondary KIE [5]: 1.2
nmol TP [5]: 6.9* nmol
nmol o-CR [5]: 1.5* nmol
nmol o-MBA [5]: 3.1* nmol
INTER KIE (combined intermolecular competitive KIE) [6]: 10
Intramolecular KIE (kH/kD) [6]: 5.95
Metabolite profile, Phenol [6]: 57 Mol-%
Metabolite profile, o-CR [6]: 16 Mol-%
Metabolite profile, o-MBA [6]: 27 Mol-%
P, calculated primary KIE [6]: 7.1
Ratio of ring hydroxylation para to the methoxy group to ODAlk [6]: 3.5
S, calculated secondary KIE [6]: 1.19
nmol 4M3MPh [6]: 13* nmol
nmol TP [6]: 23* nmol
nmol o-CR [6]: 3.8* nmol
nmol o-MBA [6]: 6.1* nmol
INTER KIE (combined intermolecular competitive KIE) [7]: 14.94
Intramolecular KIE (kH/kD) [7]: 6.90
P, calculated primary KIE [7]: 8.9
S, calculated secondary KIE [7]: 1.29
Metabolite profile, o-CR ([7]; pH 7.4): 59 Mol-%
Metabolite profile, o-MBA ([7]; pH 7.4): 39 Mol-%
Ratio ODAlk:Arom ([7]; pH 7.4): 0.03
nmol 4M3MPh ([7]; pH 7.4): 1.1* nmol
nmol TP ([7]; pH 7.4): 48 nmol
nmol o-CR ([7]; pH 7.4): 29* nmol
nmol o-MBA ([7]; pH 7.4): 18.7* nmol
